{"source": "patent US20260201040A1", "about": "“TREATMENT OF SICKLE CELL DISEASE” (BioLineRx Ltd., priority 2022, published 2026)", "origin": "cited, not measured here", "test_system": "CD34+ HSCs", "details": "short-acting CXCR4i, alone"}
{"smiles": "c1cc(CN2CCCNCCNCCCNCC2)ccc1CN1CCCNCCNCCCNCC1", "note": "[plerixafor]", "values": [{"measurement": "yield of optimal HSC numbers for gene therapy applications", "value": "does not reliably yield optimal HSC numbers"}]}
